Reference: patent US20250288587A1, “Methods of Treating Fibrosis” (Athira Pharma, Inc., priority 2022, published 2025)

Assays:
Assay type in all cases: in vivo
[1] = test system: pulmonary LPS-stimulated rats; assay: Immune cell infiltration in BALF, LPS-induced acute pulmonary inflammation; conditions: 24 h and 0.5 h before LPS; for Neutrophils in BALF, reduction in cell count vs disease control / Total Leukocytes in BALF, reduction in cell count vs disease control: BALF 4 h post LPS
Excerpt: Acute pulmonary inflammation can be effectively modeled in rats by intratracheal administration of bacterial lipopolysaccharides (LPS). Pulmonary inflammation that is left unresolved can lead to pulmonary fibrosis. The normal process of inflammation is regulated and promoted by expression, secretion, and distribution of inflammatory signaling proteins. Therapeutics intended to reduce inflammation are commonly identified by their ability to change the expression levels of inflammatory signaling molecules, either by disruption of the inflammatory pathway directly, or resolution of the inflammatory signaling cascade. The severity of inflammatory response can be measured by quantifying the amount of immune cell infiltration and secretion of cytokine signaling proteins in bronchoalveolar lavage fluid (BALF).
In this study, acute pulmonary inflammation was induced in healthy male Sprague-Dawley rats (7-9 weeks old at study start) by intratracheal instillation of […] LPS in saline. Test animals were treated with test compounds twice, at 24 hours and 0.5 hours before LPS treatment by intravenous (IV) injection. […] Four hours post LPS administration, animals were euthanized by intraperitoneal injection of thiopentone and 20 mL of cold Hanks Balanced Salt Solution, pH 7.2, was infused into the lungs through tracheal cannulation. BALF was then collected.
Immune cell infiltration was performed by counting total leukocytes using a MUSE® mini flow cytometer, and by manual counting of neutrophil cells in cytospin smears stained with Leishman's staining reagent.

[2] = test system: pulmonary LPS-stimulated rats; assay: Cytokine expression in BALF supernatant (multiplex immunoassay), LPS-induced acute pulmonary inflammation
CFA-stimulated rats [3] = assay: CFA inflammatory pain model, mechanical allodynia (von Frey test); parameters: key to Mechanical Allodynia, change in sensitivity compared to CFA alone / Mechanical Allodynia, significant reduction in pain behavior vs CFA alone: NS = no statistically significant change in sensitivity compared to CFA alone; + = statistically significant change in sensitivity compared to CFA alone, p < 0.05
Summary of the method: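 Rats received […] subcutaneously into the right hind plantar paw on day 0, with daily oral gavage dosing from day −1 to day 8 (1, 0.1, 0.025 mg/kg) or on days −2, 1, 3 and 7. Von Frey paw withdrawal threshold (4–26 g filaments) was measured 1 h post-dose on days 1, 3 and 7.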

CFA-stimulated rats [4] = assay: CFA inflammatory pain model, thermal hyperalgesia (Hargreaves method); parameters: key to Thermal Hyperalgesia, change in sensitivity compared to CFA alone / Thermal Hyperalgesia, significant reduction in pain behavior vs CFA alone: NS = no statistically significant change in sensitivity compared to CFA alone; + = statistically significant change in sensitivity compared to CFA alone, p < 0.05
[5] = 0.075 mg/kg IV, 24 h and 0.5 h before LPS
[6] = 0.75 mg/kg IV, 24 h and 0.5 h before LPS
[7] = 7.5 mg/kg IV, 24 h and 0.5 h before LPS
[8] = 10 mg/kg PO, Day 1, 1 h post-dose
[9] = 10 mg/kg PO, Day 3, 1 h post-dose
[10] = 10 mg/kg PO, Day 7, 1 h post-dose
[11] = 20 mg/kg PO, Day 1, 1 h post-dose
[12] = 20 mg/kg PO, Day 3, 1 h post-dose
[13] = 20 mg/kg PO, Day 7, 1 h post-dose
[14] = PO, post-dose testing, any tested dose

SMILES: CCC(C)CN1CC2N(Cc3ccc(C(F)(F)F)cc3)CCC(=O)N2[C@@H](C)C1=O (stereo partly shown) [Compound 5a]
- Neutrophils in BALF, reduction in cell count vs disease control ([1]; 0.075 mg/kg IV): ++ (++ = >25% reduction in cell count vs disease control)
- Total Leukocytes in BALF, reduction in cell count vs disease control ([1]; 0.075 mg/kg IV): ++ (++ = >25% reduction in cell count vs disease control)
- Neutrophils in BALF, reduction in cell count vs disease control ([1]; 0.75 mg/kg IV): + (+ = >5% reduction in cell count vs disease control)
- Total Leukocytes in BALF, reduction in cell count vs disease control ([1]; 0.75 mg/kg IV): + (+ = >5% reduction in cell count vs disease control)
- Neutrophils in BALF, reduction in cell count vs disease control ([1]; 7.5 mg/kg IV): + (+ = >5% reduction in cell count vs disease control)
- Total Leukocytes in BALF, reduction in cell count vs disease control ([1]; 7.5 mg/kg IV): + (+ = >5% reduction in cell count vs disease control)
- total leukocyte counts and neutrophil counts in BALF compared to LPS-only controls ([1]; IV): reduced both total leukocyte counts and neutrophil counts
- CCL3, significant change in cytokine expression in BALF supernatant [2, 5]: + (+ = Significant change in cytokine quantification, p < 0.05 by Student's T-test)
- CX3CL1, significant change in cytokine expression in BALF supernatant [2, 5]: + (+ = Significant change in cytokine quantification, p < 0.05 by Student's T-test)
- EGF, significant change in cytokine expression in BALF supernatant [2, 5]: + (+ = Significant change in cytokine quantification, p < 0.05 by Student's T-test)
- IFN-γ, significant change in cytokine expression in BALF supernatant [2, 5]: + (+ = Significant change in cytokine quantification, p < 0.05 by Student's T-test)
- IL-1α, significant change in cytokine expression in BALF supernatant [2, 5]: + (+ = Significant change in cytokine quantification, p < 0.05 by Student's T-test)
- IL-1β, significant change in cytokine expression in BALF supernatant [2, 5]: + (+ = Significant change in cytokine quantification, p < 0.05 by Student's T-test)
- IL-10, significant change in cytokine expression in BALF supernatant [2, 5]: + (+ = Significant change in cytokine quantification, p < 0.05 by Student's T-test)
- IL-12p70, significant change in cytokine expression in BALF supernatant [2, 5]: + (+ = Significant change in cytokine quantification, p < 0.05 by Student's T-test)
- IL-17A, significant change in cytokine expression in BALF supernatant [2, 5]: + (+ = Significant change in cytokine quantification, p < 0.05 by Student's T-test)
- IFN-γ, significant change in cytokine expression in BALF supernatant [2, 6]: + (+ = Significant change in cytokine quantification, p < 0.05 by Student's T-test)
- IL-1α, significant change in cytokine expression in BALF supernatant [2, 6]: + (+ = Significant change in cytokine quantification, p < 0.05 by Student's T-test)
- IL-1β, significant change in cytokine expression in BALF supernatant [2, 6]: + (+ = Significant change in cytokine quantification, p < 0.05 by Student's T-test)
- IL-10, significant change in cytokine expression in BALF supernatant [2, 6]: + (+ = Significant change in cytokine quantification, p < 0.05 by Student's T-test)
- IL-17A, significant change in cytokine expression in BALF supernatant [2, 6]: + (+ = Significant change in cytokine quantification, p < 0.05 by Student's T-test)
- IL-1α, significant change in cytokine expression in BALF supernatant [2, 7]: + (+ = Significant change in cytokine quantification, p < 0.05 by Student's T-test)
- IL-10, significant change in cytokine expression in BALF supernatant [2, 7]: + (+ = Significant change in cytokine quantification, p < 0.05 by Student's T-test)
- cytokines with significant changes in expression in BALF supernatant versus LPS-only animals ([2]; p<0.05, Student's T-test, any tested dose): CCL3, CXCL1, IFN-γ, IL-1α, IL-1β, IL-10, IL-12p70, and IL-17A
- Mechanical Allodynia, significant reduction in pain behavior vs CFA alone (CFA-stimulated rats [3]; [8]): + (+ = statistically significant change in sensitivity compared to CFA alone, p < 0.05)
- Mechanical Allodynia, significant reduction in pain behavior vs CFA alone (CFA-stimulated rats [3]; [9]): NS
- Mechanical Allodynia, significant reduction in pain behavior vs CFA alone (CFA-stimulated rats [3]; [10]): NS
- Mechanical Allodynia, significant reduction in pain behavior vs CFA alone (CFA-stimulated rats [3]; [11]): + (+ = statistically significant change in sensitivity compared to CFA alone, p < 0.05)
- Mechanical Allodynia, significant reduction in pain behavior vs CFA alone (CFA-stimulated rats [3]; [12]): NS
- Mechanical Allodynia, significant reduction in pain behavior vs CFA alone (CFA-stimulated rats [3]; [13]): NS
- study days on which sensitivity to mechanical stimulation was reduced (CFA-stimulated rats [3]; [14]): study day 1
- PWT (paw withdrawal threshold) vs CFA+vehicle (CFA-stimulated rats [3]; day 1, data not shown): statistically significant increase
- Thermal Hyperalgesia, significant reduction in pain behavior vs CFA alone (CFA-stimulated rats [4]; [8]): + (+ = statistically significant change in sensitivity compared to CFA alone, p < 0.05)
- Thermal Hyperalgesia, significant reduction in pain behavior vs CFA alone (CFA-stimulated rats [4]; [9]): NS
- Thermal Hyperalgesia, significant reduction in pain behavior vs CFA alone (CFA-stimulated rats [4]; [10]): + (+ = statistically significant change in sensitivity compared to CFA alone, p < 0.05)
- Thermal Hyperalgesia, significant reduction in pain behavior vs CFA alone (CFA-stimulated rats [4]; [11]): NS
- Thermal Hyperalgesia, significant reduction in pain behavior vs CFA alone (CFA-stimulated rats [4]; [12]): NS
- Thermal Hyperalgesia, significant reduction in pain behavior vs CFA alone (CFA-stimulated rats [4]; [13]): + (+ = statistically significant change in sensitivity compared to CFA alone, p < 0.05)
- study days on which thermal sensitivity was reduced (CFA-stimulated rats [4]; [14]): study days 1 and 7
- PWL (paw withdrawal latency) vs CFA+vehicle (CFA-stimulated rats [4]; day 7 at each dose, data not shown): statistically significant increase
